Key:
Format in all cases: functional, cell-based
HT-29 = assay: Antitumoral activity was assayed against HT-29 cell line; conditions: Homo sapiens
SK-MEL-28 = assay: Antitumoral activity was assayed against MEL-28 cell line; conditions: Homo sapiens
P388 = assay: Antitumoral activity was assayed against P-388 cell line; conditions: Mus musculus
A549 = assay: Antitumoral activity was assayed against A-549 cell line; conditions: Homo sapiens

Row | SMILES | IC50 (HT-29) [µM] | IC50 (SK-MEL-28) [µM] | IC50 (P388) [nM] | IC50 (A549) [µM]
1 | CC1(C)CCC[C@@]2(C)C1CC[C@@]1(C)Oc3ccc(O)cc3C[C@@H]12 (some centres not stated) | 15.9 | 15.9 | 15900 | 15.9
2 | CC1=CCC2C(C)(C)CCC[C@]2(C)[C@H]1Cc1cc(O)ccc1O (some centres not stated) | 0.79 | 0.79 | 160 | 0.79
3 | CC1=CCC2C(C)(C)CCC[C@]2(C)[C@H]1CC1=CC(=O)C=CC1=O (some centres not stated) | 3.2 | 3.2 | 800 | 3.2

From ChEMBL document CHEMBL1131834, “Synthesis and antitumoral activities of marine ent-chromazonarol and related compounds” (Bioorg Med Chem Lett, 1999)
